Reference: patent US20250296959A1, “B7-H3 TARGETING PEPTIDES AND CONSTRUCTS THEREOF” (Mariana Oncology Inc., priority 2024, published 2025)
Starred links: 1 amine or outer side, 2 acyl side, 3 side chain; linkers in the order of their positions; H or OH if unused. Positions of bridges follow the written chain, without caps; N, C: chain ends. Non-standard residues stand in square brackets, D forms with d. Residues, ends and D or L forms follow the SMILES beside them. Groups on a side chain read outwards from the residue. *: point of attachment. X4 = O=C(O)CN1CCN(CC(=O)O)CCN([C@H](CCC(=O)*)C(=O)O)CCN(CC(=O)O)CC1; Ala(piperidin-4-yl) = O=C([C@H](CC1CCN([*:3])CC1)N[*:1])[*:2]; DOTA = O=C(O)CN1CCN(CC(=O)O)CCN(CC(=O)*)CCN(CC(=O)O)CC1; Phe(4-NHCONH2) = NC(=O)Nc1ccc(C[C@H](N)C(=O)O)cc1; Trp(5-F) = N[C@@H](Cc1c[nH]c2ccc(F)cc12)C(=O)O; X1 = C[C@@H](c1ccccc1)[C@H](N[*:1])C(=O)[*:2]; Tyr(3-F) = N[C@@H](Cc1ccc(O)c(F)c1)C(=O)O; γGlu = O=C(O)[C@H](CCC(=O)[*:2])N[*:1]; 1Nal = N[C@@H](Cc1cccc2ccccc12)C(=O)O; Ala(4-THP) = N[C@@H](CC1CCOCC1)C(=O)O; Val(3-OH) = CC(C)(O)[C@H](N)C(=O)O; mTyr = N[C@@H](Cc1cccc(O)c1)C(=O)O; 4Pal = N[C@@H](Cc1ccncc1)C(=O)O; Cha = N[C@@H](CC1CCCCC1)C(=O)O; pGlu = O=C1CC[C@@H](C(=O)O)N1; Tle = CC(C)(C)[C@H](N)C(=O)O; hLeu = CC(C)CC[C@H](N)C(=O)O; Pip = O=C(O)[C@@H]1CCCCN1; Nva = CCC[C@H](N)C(=O)O

molecular target: T1, human 4lg B7-H3 (Homo sapiens, UniProt Q5ZPR3); assay: Affinity determination by surface plasmon resonance (SPR) to 4Ig B7-H3; conditions: SPR KD—25° C., 4Ig B7-H3; 25° C. flow cell temperature
T1 sequence (Q5ZPR3 29-534): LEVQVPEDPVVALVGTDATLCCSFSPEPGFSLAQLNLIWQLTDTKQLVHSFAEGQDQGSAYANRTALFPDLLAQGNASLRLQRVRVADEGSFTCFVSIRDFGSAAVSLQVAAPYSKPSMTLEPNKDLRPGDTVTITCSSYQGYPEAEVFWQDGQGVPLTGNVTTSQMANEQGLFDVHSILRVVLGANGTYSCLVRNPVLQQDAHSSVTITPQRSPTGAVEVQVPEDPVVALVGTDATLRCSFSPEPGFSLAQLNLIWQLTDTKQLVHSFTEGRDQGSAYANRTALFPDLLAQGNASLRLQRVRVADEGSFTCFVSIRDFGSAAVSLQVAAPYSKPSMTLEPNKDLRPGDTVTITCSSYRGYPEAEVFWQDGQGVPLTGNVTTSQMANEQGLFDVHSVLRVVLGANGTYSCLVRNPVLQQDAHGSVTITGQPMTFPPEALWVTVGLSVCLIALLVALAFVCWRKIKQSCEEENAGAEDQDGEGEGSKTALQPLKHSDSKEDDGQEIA

Row | Kd [nM] | Compound
1 | 1 to 10 | CC(=O)N[C@@H](CCC(C)C)C(=O)N[C@@H](Cc1ccc(O)cc1)C(=O)N[C@H]1CSSC[C@@H](C(=O)N[C@@H](Cc2c[nH]c3ccccc23)C(=O)N[C@@H](Cc2ccccc2)C(=O)N[C@H](C(=O)N[C@H](CCCCNC(=O)CN2CCN(CC(=O)O)CCN(CC(=O)O)CCN(CC(=O)O)CC2)C(N)=O)[C@@H](C)O)NC(=O)[C@H](Cc2ccc(O)c(F)c2)NC(=O)[C@H](C(C)C)NC(=O)[C@H](CC(=O)O)NC(=O)[C@H](Cc2ccc(O)cc2)NC(=O)[C@H](CCCCN)NC(=O)CNC(=O)[C@H](C(C)C)NC1=O [compound 151, Ac-hLeu-Y-C-V-G-K-Y-D-V-3FY-C-W-F-Thr-dLys(DOTA)-CONH2] (Ac-[hLeu]YCVGKYDV[Tyr(3-F)]CWFT[dK](DOTA)-NH2; disulfide 3-11)
2 | < 1 | CC(=O)N[C@@H](CCC(C)C)C(=O)N[C@@H](Cc1ccc(O)cc1)C(=O)N[C@H]1CSSC[C@@H](C(=O)N[C@@H](Cc2c[nH]c3ccccc23)C(=O)N[C@@H](Cc2ccccc2)C(=O)N[C@H](C(=O)N[C@H](CCCCNC(=O)CN2CCN(CC(=O)O)CCN(CC(=O)O)CCN(CC(=O)O)CC2)C(N)=O)C(C)(C)O)NC(=O)[C@H](Cc2ccc(O)cc2)NC(=O)[C@H](C(C)C)NC(=O)[C@H](CC(=O)O)NC(=O)[C@H](Cc2ccc(O)cc2)NC(=O)[C@H](CCCCN)NC(=O)CNC(=O)[C@H](C(C)C)NC1=O [compound 149, Ac-hLeu-Y-C-V-G-K-Y-D-V-Y-C-W-F-hydroxyVal-dLys(DOTA)-CONH2] (Ac-[hLeu]YCVGKYDVYCWF[Val(3-OH)][dK](DOTA)-NH2; disulfide 3-11)
3 | 1 to 10 | CC(=O)N[C@@H](CCC(C)C)C(=O)N[C@@H](Cc1ccc(O)cc1)C(=O)N[C@H]1CSSC[C@@H](C(=O)N[C@@H](Cc2cccc3ccccc23)C(=O)N[C@@H](Cc2ccccc2)C(=O)N2CCC[C@H]2C(=O)N[C@H](CCCCNC(=O)CC[C@H](NC(=O)CC[C@H](NC(=O)CN2CCN(CC(=O)O)CCN(CC(=O)O)CCN(CC(=O)O)CC2)C(=O)O)C(=O)O)C(N)=O)NC(=O)[C@H](Cc2ccc(O)cc2)NC(=O)[C@H](C(C)C)NC(=O)[C@H](CC(=O)O)NC(=O)[C@H](CC2CCOCC2)NC(=O)[C@H](CCCCN)NC(=O)CNC(=O)[C@H](C(C)(C)C)NC1=O [compound 275, Ac-hLeu-Y-C-Tbg-G-K-ThpA-D-V-Y-C-1Nal-F-Pro-dLys(gE-gE-DOTA)-CONH2] (Ac-[hLeu]YC[Tle]GK[Ala(4-THP)]DVYC[1Nal]FP[dK]([γGlu-γGlu-DOTA])-NH2; disulfide 3-11)
4 | 1 to 10 | CCC[C@@H]1NC(=O)[C@@H](NC(=O)[C@H](Cc2ccc(O)cc2)NC(=O)[C@H](CCC(C)C)NC(C)=O)CSSC[C@@H](C(=O)N[C@@H](Cc2c[nH]c3ccc(F)cc23)C(=O)N[C@@H](Cc2ccccc2)C(=O)N[C@H](C(=O)N[C@H](CCCCNC(=O)CN2CCN(CC(=O)O)CCN(CC(=O)O)CCN(CC(=O)O)CC2)C(N)=O)[C@@H](C)O)NC(=O)[C@H](Cc2ccc(O)cc2)NC(=O)[C@H](C(C)C)NC(=O)[C@H](CC(=O)O)NC(=O)[C@H](Cc2ccc(O)cc2)NC(=O)[C@H](CCCCN)NC(=O)CNC1=O [compound 184, Ac-hLeu-Y-C-Nva-G-K-Y-D-V-Y-C-5FW-F-Thr-dLys(DOTA)-CONH2] (Ac-[hLeu]YC[Nva]GKYDVYC[Trp(5-F)]FT[dK](DOTA)-NH2; disulfide 3-11)
5 | 10 to 100 | CC(=O)N[C@@H](CC(C)C)C(=O)N[C@@H](Cc1ccc(O)cc1)C(=O)N[C@H]1CSSC[C@@H](C(=O)N[C@@H](Cc2c[nH]c3ccccc23)C(=O)N[C@@H](Cc2ccccc2)C(=O)N[C@H](C(=O)N[C@H](CCCCNC(=O)CN2CCN(CC(=O)O)CCN(CC(=O)O)CCN(CC(=O)O)CC2)C(N)=O)[C@@H](C)O)NC(=O)[C@H](Cc2ccc(O)cc2)NC(=O)[C@H](C(C)C)NC(=O)[C@H](CC(=O)O)NC(=O)[C@H](Cc2ccc(O)cc2)NC(=O)[C@H](CCCCN)NC(=O)CNC(=O)[C@H](C(C)C)NC1=O [compound 56, Ac-Leu-Y-C-V-G-K-Y-D-V-Y-C-W-F-Thr-dLys(DOTA)-CONH2] (Ac-LYCVGKYDVYCWFT[dK](DOTA)-NH2; disulfide 3-11)
6 | 1 to 10 | CC[C@H](C)[C@@H]1NC(=O)[C@@H](NC(=O)[C@H](Cc2ccc(O)cc2)NC(=O)[C@H](CCC(C)C)NC(C)=O)CSSC[C@@H](C(=O)N[C@@H](Cc2c[nH]c3ccc(F)cc23)C(=O)N[C@@H](Cc2ccccc2)C(=O)N2CCC[C@H]2C(N)=O)NC(=O)[C@H](Cc2ccc(O)cc2)NC(=O)[C@H](C(C)C)NC(=O)[C@H](CC(=O)O)NC(=O)[C@H](Cc2ccncc2)NC(=O)[C@H](CCCCNC(=O)CN2CCN(CC(=O)O)CCN(CC(=O)O)CCN(CC(=O)O)CC2)NC(=O)CNC1=O [compound 260, Ac-hLeu-Y-C-Ile-G-Lys(DOTA)-4PyA-D-V-Y-C-5FW-F-Pro-CONH2] (Ac-[hLeu]YCIGK(DOTA)[4Pal]DVYC[Trp(5-F)]FP-NH2; disulfide 3-11)

same assay, conditions: SPR KD—37° C., 4Ig B7-H3; 37° C. flow cell temperature

Row | Kd [nM] | Compound
7 | < 1 | CC(=O)N[C@@H](CCC(C)C)C(=O)N[C@@H](Cc1ccc(O)cc1)C(=O)N[C@H]1CSSC[C@@H](C(=O)N[C@@H](Cc2c[nH]c3ccc(F)cc23)C(=O)N[C@@H](Cc2ccccc2)C(=O)N[C@H](C(=O)N[C@H](CCC(=O)O)C(N)=O)C(C)(C)O)NC(=O)[C@H](Cc2ccc(O)cc2)NC(=O)[C@H](C(C)C)NC(=O)[C@H](CC(=O)O)NC(=O)[C@H](CC2CCN(C(=O)CC[C@H](C(=O)O)N3CCN(CC(=O)O)CCN(CC(=O)O)CCN(CC(=O)O)CC3)CC2)NC(=O)[C@H](CC2CCNCC2)NC(=O)CNC(=O)[C@H](C(C)(C)C)NC1=O [compound 460, Ac-hLeu-Y-C-Tbg-G-PipAla-Pip(R-DOTAGA)Ala-D-V-Y-C-5FW-F-hydroxyVal-dGlu-CONH2] (Ac-[hLeu]YC[Tle]G[Ala(piperidin-4-yl)][Ala(piperidin-4-yl)](X4)DVYC[Trp(5-F)]F[Val(3-OH)][dE]-NH2; disulfide 3-11)
8 | < 1 | CC(C)CC[C@H](NC(=O)[C@@H]1CCC(=O)N1)C(=O)N[C@@H](Cc1ccc(O)cc1)C(=O)N[C@H]1CSSC[C@@H](C(=O)N[C@@H](Cc2c[nH]c3ccc(F)cc23)C(=O)N[C@H](C(=O)N[C@H](C(=O)N[C@H](CCCCNC(=O)[C@H](CCC(=O)O)NC(=O)CN2CCN(CC(=O)O)CCN(CC(=O)O)CCN(CC(=O)O)CC2)C(=O)O)C(C)(C)O)[C@@H](C)c2ccccc2)NC(=O)[C@H](Cc2ccc(NC(N)=O)cc2)NC(=O)[C@H](C(C)C)NC(=O)[C@H](CC(=O)O)NC(=O)[C@H](CC2CCOCC2)NC(=O)[C@H](CC2CCNCC2)NC(=O)CNC(=O)[C@H](C(C)(C)C)NC1=O [compound 505, Pyroglutamate-hLeu-Y-C-Tbg-G-PipAla-ThpA-D-V-Aph(Cbm)-C-5FW-[(2S, 3S)beta-Me-Phe]-hydroxyVal-dLys(Glu-DOTA)-COOH] ([pGlu][hLeu]YC[Tle]G[Ala(piperidin-4-yl)][Ala(4-THP)]DV[Phe(4-NHCONH2)]C[Trp(5-F)][X1][Val(3-OH)][dK]([Glu-DOTA])-OH; disulfide 4-12)
9 | 1 to 10 | CC(=O)N[C@@H](CC1CCCCC1)C(=O)N[C@@H](Cc1ccc(O)cc1)C(=O)N[C@H]1CSSC[C@@H](C(=O)N[C@@H](Cc2c[nH]c3ccc(F)cc23)C(=O)N[C@@H](Cc2ccccc2)C(=O)N[C@H](C(=O)N[C@H](CCCCNC(=O)CN2CCN(CC(=O)O)CCN(CC(=O)O)CCN(CC(=O)O)CC2)C(=O)O)C(C)(C)O)NC(=O)[C@H](Cc2ccc(O)cc2)NC(=O)[C@H](C(C)C)NC(=O)[C@H](CC(=O)O)NC(=O)[C@H](CC2CCOCC2)NC(=O)[C@H](CCCCN)NC(=O)CNC(=O)[C@H](C(C)(C)C)NC1=O [compound 367, Ac-Cha-Y-C-Tbg-G-K-ThpA-D-V-Y-C-5FW-F-hydroxyVal-dLys(DOTA)-COOH] (Ac-[Cha]YC[Tle]GK[Ala(4-THP)]DVYC[Trp(5-F)]F[Val(3-OH)][dK](DOTA)-OH; disulfide 3-11)
10 | 10 to 100 | CC(=O)N[C@@H](CCC(C)C)C(=O)N[C@@H](Cc1ccc(O)cc1)C(=O)N[C@H]1CSSC[C@@H](C(=O)N[C@@H](Cc2c[nH]c3ccc(F)cc23)C(=O)N[C@@H](Cc2ccccc2)C(=O)N[C@H](C(=O)N[C@H](CCCCNC(=O)CN2CCN(CC(=O)O)CCN(CC(=O)O)CCN(CC(=O)O)CC2)C(=O)O)C(C)(C)O)NC(=O)[C@H](Cc2ccc(O)cc2)NC(=O)[C@H](C(C)C)NC(=O)[C@H](CC(=O)O)NC(=O)[C@H](CC2CCOCC2)NC(=O)[C@@H]2CCCCN2C(=O)CNC(=O)[C@H](C(C)(C)C)NC1=O [compound 350, Ac-hLeu-Y-C-Tbg-G-Pip-ThpA-D-V-Y-C-5FW-F-hydroxyVal-dLys(DOTA)-COOH] (Ac-[hLeu]YC[Tle]G[Pip][Ala(4-THP)]DVYC[Trp(5-F)]F[Val(3-OH)][dK](DOTA)-OH; disulfide 3-11)
11 | 1 to 10 | CC(=O)N[C@@H](CCC(C)C)C(=O)N[C@@H](Cc1ccc(O)cc1)C(=O)N[C@H]1CSSC[C@@H](C(=O)N[C@@H](Cc2c[nH]c3ccc(F)cc23)C(=O)N[C@@H](Cc2cccc(O)c2)C(=O)N[C@H](C(=O)N[C@H](CCCCNC(=O)CN2CCN(CC(=O)O)CCN(CC(=O)O)CCN(CC(=O)O)CC2)C(=O)O)C(C)(C)O)NC(=O)[C@H](Cc2ccc(O)cc2)NC(=O)[C@H](C(C)C)NC(=O)[C@H](CC(=O)O)NC(=O)[C@H](CC2CCOCC2)NC(=O)[C@H](CC2CCNCC2)NC(=O)CNC(=O)[C@H](C(C)(C)C)NC1=O [compound 431, Ac-hLeu-Y-C-Tbg-G-PipAla-ThpA-D-V-Y-C-5FW-3OHPhe-hydroxyVal-dLys(DOTA)-COOH] (Ac-[hLeu]YC[Tle]G[Ala(piperidin-4-yl)][Ala(4-THP)]DVYC[Trp(5-F)][mTyr][Val(3-OH)][dK](DOTA)-OH; disulfide 3-11)
